This note sets out measurements from BindingDB's records for doi:10.1021/jm960541s (Upjohn, 1996).

In the first experiment the target is T1, Dimer of Gag-Pol polyprotein [489-587] (Human immunodeficiency virus 1, UniProt P12497).
T1 construct: 489-587
Nature of the experiment: Protease Inhibition Assay. Particulars: pH 5; 22 °C. The source says:
(§1) HIV-1 protease was purified and refolded from E. coli inclusion bodies. The substrate used spans the p17-p24 processing site (R-V-S-Q-N-Y-P-I-V-Q-N-K) and was derivatized with biotin and fluorescein isothiocyanate (FITC) at the amino and carboxy termini. In the presence of HIV-l protease, the substrate is rapidly cleaved into two parts. The biotinylated amino terminal fragment binds to the avidin beads while the FITC-containing carboxy1 terminal fragment is removed through the membrane. […] The bound fluorescence is obtained by processing on an IDEXX Screen Machine. Determination of Ki values with this assay requires analysis under conditions in which substrate concentration resides substantially below Km and the inhibitor concentrations greatly exceeds the Ki value and the enzyme concentration.
Turning to `CCCC1(CCc2ccccc2)CC(=O)C(C(CC)c2cccc(NS(=O)(=O)c3ccc(C#N)cc3)c2)C(=O)O1` (configuration not stated) [4-cyano-N-(3-{1-[4-hydroxy-2-oxo-6-(2-phenylethyl)-6-propyl-5,6-dihydro-2H-pyran-3-yl]propyl}phenyl)benzene-1-sulfonamide], the Ki was 8 nM.
On the same count and under the same terms, for `CCCC1(CCc2ccccc2)CC(=O)C(C(CC)c2cccc(NS(=O)(=O)c3ccc(F)cc3)c2)C(=O)O1` (configuration not stated) [4-fluoro-N-(3-{1-[4-hydroxy-2-oxo-6-(2-phenylethyl)-6-propyl-5,6-dihydro-2H-pyran-3-yl]propyl}phenyl)benzene-1-sulfonamide] the value was 6 nM.
Still for that read-out and setting: as for `CCCC1(CCc2ccccc2)CC(=O)C(C(CC)c2cccc(NS(=O)(=O)c3cn(C)cn3)c2)C(=O)O1` (configuration not stated) [N-(3-{1-[4-hydroxy-2-oxo-6-(2-phenylethyl)-6-propyl-5,6-dihydro-2H-pyran-3-yl]propyl}phenyl)-1-methyl-1H-imidazole-4-sulfonamide], the figure is 1 nM; as for `CCCC1(CCc2ccccc2)CC(=O)C(C(CC)c2cccc(NS(=O)(=O)c3ccccc3)c2)C(=O)O1` (configuration not stated) [N-(3-{1-[4-hydroxy-2-oxo-6-(2-phenylethyl)-6-propyl-5,6-dihydro-2H-pyran-3-yl]propyl}phenyl)benzenesulfonamide], 17 nM.
Still for that read-out and setting: as for `CCCC1(CCc2ccccc2)CC(=O)C(C(CC)c2cccc(NS(=O)(=O)c3cccc4cccnc34)c2)C(=O)O1` (configuration not stated) [N-(3-{1-[4-hydroxy-2-oxo-6-(2-phenylethyl)-6-propyl-5,6-dihydro-2H-pyran-3-yl]propyl}phenyl)quinoline-8-sulfonamide], the figure is 3 nM.

In the next experiment the target is T2, Dimer of Gag-Pol polyprotein [489-587] (Human immunodeficiency virus 1, UniProt P04585).
T2 construct: 489-587
Briefly: Protease Inhibition Assay. Particulars: pH 5; 22 °C.
Excerpt: as §1
In turn, `CCC[C@@]1(CCc2ccccc2)CC(=O)C([C@H](CC)c2cccc(NS(=O)(=O)c3ccc(C#N)cn3)c2)C(=O)O1` (stereo partly drawn) [5-cyano-N-{3-[(1R)-1-[(6R)-4-hydroxy-2-oxo-6-(2-phenylethyl)-6-propyl-5,6-dihydro-2H-pyran-3-yl]propyl]phenyl}pyridine-2-sulfonamide] had a Ki of 0.007 nM.
The same measure, in the same setting: for `CCC[C@]1(CCc2ccccc2)CC(=O)C([C@H](CC)c2cccc(NS(=O)(=O)c3ccc(C#N)cn3)c2)C(=O)O1` (stereo partly drawn) [5-cyano-N-{3-[(1R)-1-[(6S)-4-hydroxy-2-oxo-6-(2-phenylethyl)-6-propyl-5,6-dihydro-2H-pyran-3-yl]propyl]phenyl}pyridine-2-sulfonamide] the value was 0.04 nM.
`CCC[C@@]1(CCc2ccccc2)CC(=O)C([C@@H](CC)c2cccc(NS(=O)(=O)c3ccc(C#N)cn3)c2)C(=O)O1` (stereo partly drawn) [5-cyano-N-{3-[(1S)-1-[(6R)-4-hydroxy-2-oxo-6-(2-phenylethyl)-6-propyl-5,6-dihydro-2H-pyran-3-yl]propyl]phenyl}pyridine-2-sulfonamide] gave a Ki of 0.1 nM.
Still for that read-out and setting: for `CCC[C@]1(CCc2ccccc2)CC(=O)C([C@@H](CC)c2cccc(NS(=O)(=O)c3ccc(C#N)cn3)c2)C(=O)O1` (stereo partly drawn) [5-cyano-N-{3-[(1S)-1-[(6S)-4-hydroxy-2-oxo-6-(2-phenylethyl)-6-propyl-5,6-dihydro-2H-pyran-3-yl]propyl]phenyl}pyridine-2-sulfonamide] the value was 0.12 nM.
The same measure, in the same setting: for `CCC[C@@]1(CCc2ccccc2)CC(=O)C([C@H](CC)c2cccc(NS(=O)(=O)c3cn(C)cn3)c2)C(=O)O1` (stereo partly drawn) [N-{3-[(1R)-1-[(6R)-4-hydroxy-2-oxo-6-(2-phenylethyl)-6-propyl-5,6-dihydro-2H-pyran-3-yl]propyl]phenyl}-1-methyl-1H-imidazole-4-sulfonamide] the value was 0.06 nM; for `CCC[C@@]1(CCc2ccccc2)CC(=O)C([C@H](CC)c2cccc(NS(=O)(=O)c3ccc(C(F)(F)F)cn3)c2)C(=O)O1` (stereo partly drawn) [N-{3-[(1R)-1-[(6R)-4-hydroxy-2-oxo-6-(2-phenylethyl)-6-propyl-5,6-dihydro-2H-pyran-3-yl]propyl]phenyl}-5-(trifluoromethyl)pyridine-2-sulfonamide], 0.008 nM.
On the same count and under the same terms, as for `CCC[C@]1(CCc2ccccc2)CC(=O)C([C@H](CC)c2cccc(NS(=O)(=O)c3cn(C)cn3)c2)C(=O)O1` (stereo partly drawn) [N-{3-[(1R)-1-[(6S)-4-hydroxy-2-oxo-6-(2-phenylethyl)-6-propyl-5,6-dihydro-2H-pyran-3-yl]propyl]phenyl}-1-methyl-1H-imidazole-4-sulfonamide], the figure is 0.12 nM; as for `CCC[C@]1(CCc2ccccc2)CC(=O)C([C@H](CC)c2cccc(NS(=O)(=O)c3ccc(C(F)(F)F)cn3)c2)C(=O)O1` (stereo partly drawn) [N-{3-[(1R)-1-[(6S)-4-hydroxy-2-oxo-6-(2-phenylethyl)-6-propyl-5,6-dihydro-2H-pyran-3-yl]propyl]phenyl}-5-(trifluoromethyl)pyridine-2-sulfonamide], 0.018 nM.
In turn, `CCC[C@@]1(CCc2ccccc2)CC(=O)C([C@@H](CC)c2cccc(NS(=O)(=O)c3cn(C)cn3)c2)C(=O)O1` (stereo partly drawn) [N-{3-[(1S)-1-[(6R)-4-hydroxy-2-oxo-6-(2-phenylethyl)-6-propyl-5,6-dihydro-2H-pyran-3-yl]propyl]phenyl}-1-methyl-1H-imidazole-4-sulfonamide] returned a Ki of 0.3 nM.
The same measure, in the same setting: as for `CCC[C@@]1(CCc2ccccc2)CC(=O)C([C@@H](CC)c2cccc(NS(=O)(=O)c3ccc(C(F)(F)F)cn3)c2)C(=O)O1` (stereo partly drawn) [N-{3-[(1S)-1-[(6R)-4-hydroxy-2-oxo-6-(2-phenylethyl)-6-propyl-5,6-dihydro-2H-pyran-3-yl]propyl]phenyl}-5-(trifluoromethyl)pyridine-2-sulfonamide], the figure is 0.032 nM.
The same measure, in the same setting: as for `CCC[C@]1(CCc2ccccc2)CC(=O)C([C@@H](CC)c2cccc(NS(=O)(=O)c3cn(C)cn3)c2)C(=O)O1` (stereo partly drawn) [N-{3-[(1S)-1-[(6S)-4-hydroxy-2-oxo-6-(2-phenylethyl)-6-propyl-5,6-dihydro-2H-pyran-3-yl]propyl]phenyl}-1-methyl-1H-imidazole-4-sulfonamide], the figure is 1 nM.
On the same count and under the same terms, as for `CCC[C@]1(CCc2ccccc2)CC(=O)C([C@@H](CC)c2cccc(NS(=O)(=O)c3ccc(C(F)(F)F)cn3)c2)C(=O)O1` (stereo partly drawn) [N-{3-[(1S)-1-[(6S)-4-hydroxy-2-oxo-6-(2-phenylethyl)-6-propyl-5,6-dihydro-2H-pyran-3-yl]propyl]phenyl}-5-(trifluoromethyl)pyridine-2-sulfonamide], the figure is 0.22 nM.
